{"source": "patent US10793535B2", "about": "“Heterocyclic glutaminase inhibitors” (Calithera Biosciences, Inc., priority 2012, dated 2020)", "data": [{"test_system": "P493-6 (myc \"on\") cells", "test": "Cell proliferation assay", "format": "cell-based", "conditions": "P493-6, 72 h, read-out: Cell prolif P493 72 h IC50", "procedure": "(§1) P493-6 (myc “on”) cells were maintained in growth media (RPMI-1640, 10% FBS, 2 mM glutamine, 100 units/ml Penicillin and 100 μg/ml streptomycin) at 37° C. with 5% CO2. For compound assay, P493-6 cells were plated in 96-well V-bottom plates on the day of compound addition in 50 μl of growth media at a cell density of 200,000 cells/ml (10,000 cells/well). Compounds were serially diluted in 100% DMSO at 200-times the final concentration. Compounds were diluted 100-fold into growth media and then 50 μl of this mixture was added to cell plates making the final concentration of DMSO 0.5%. Cells were incubated with compound for 72 hrs at 37° C. with 5% CO2 and analyzed for antiproliferative effects either by Cell Titer Glo (Promega) or FACS analysis using the Viacount (Millipore) kit on the Guava instrument.", "units": {"IC50": "nM"}, "values": [{"smiles": "O=C(Cc1cc(OC(F)(F)F)ccc1F)Nc1ccc(CCCCc2nnc(NC(=O)Cc3ccccn3)s2)nn1", "note": "[Compound 720]", "IC50": 920}, {"smiles": "O=C(Cc1cccc(OC(F)(F)F)c1)Nc1ccc(CCCCc2nnc(NC(=O)C(O)c3ccccc3)s2)nn1", "note": "(stereo not shown) [Compound 689]", "IC50": 13}, {"smiles": "C[S+]([O-])c1cccc(CC(=O)Nc2nnc(CCCCc3ccc(NC(=O)Cc4cccc(OC(F)(F)F)c4)nn3)s2)c1", "note": "(stereo not shown) [Compound 682]", "IC50": 17}, {"smiles": "O=C(Cc1cccc(OC(F)(F)F)c1)Nc1ccc(CCCCc2nnc(NC(=O)CN3CCCC3=O)s2)nn1", "note": "[Compound 709]", "IC50": 140}, {"smiles": "CC(C)(C)OC(=O)NCc1cccc(CC(=O)Nc2nnc(CCCCc3ccc(NC(=O)Cc4cccc(OC(F)(F)F)c4)nn3)s2)c1", "note": "[Compound 586]", "IC50": 31}, {"smiles": "N#Cc1cccc(CC(=O)Nc2nnc(CCCCc3ccc(NC(=O)Cc4cccc(OC(F)(F)F)c4)nn3)s2)c1", "note": "[Compound 692]", "IC50": 20}, {"smiles": "O=C(Cc1cccc(OC(F)(F)F)c1)Nc1ccc(CCCCc2nnc(NC(=O)Cc3cccc(OCC(F)(F)F)c3)s2)nn1", "note": "[Compound 669]", "IC50": 26}, {"smiles": "Nc1ccc(CCCCc2nnc(NC(=O)Cc3ccccn3)s2)nn1", "note": "[Compound 706]", "IC50": 14000}, {"smiles": "O=C(Cc1cccc(OC(F)(F)F)c1)Nc1ccc(CCCCc2nnc(NC(=O)Cc3cc(F)ccc3F)s2)nn1", "note": "[Compound 659]", "IC50": 58}, {"smiles": "CC(C)(C)OC(=O)n1cnc(CC(=O)Nc2nnc(CCCCc3ccc(NC(=O)Cc4cccc(OC(F)(F)F)c4)nn3)s2)c1", "note": "[Compound 696]", "IC50": 34}, {"smiles": "CCCC(=O)OCN(C(=O)Cc1ccccc1)c1nnc(CCCCc2ccc(NC(=O)Cc3ccccc3)nn2)s1", "note": "[Compound 402]", "IC50": 54}, {"smiles": "O=C(Cc1ccc(Cl)c(OC(F)(F)F)c1)Nc1ccc(CCCCc2nnc(NC(=O)Cc3ccccn3)s2)nn1", "note": "[Compound 721]", "IC50": 22}, {"smiles": "O=C(Cc1cccc(OC(F)(F)F)c1)Nc1ccc(CCCCc2nnc(NC(=O)Cn3c(CN4CCOCC4)nc4ccccc43)s2)nn1", "note": "[Compound 702]", "IC50": 310}, {"smiles": "O=C(Cc1cccc(OC(F)(F)F)c1)Nc1ccc(CCCCc2nnc(NC(=O)Cc3cccc(Cl)c3)s2)nn1", "note": "[Compound 680]", "IC50": 33}, {"smiles": "O=C(Cc1cccc(OC(F)(F)F)c1)Nc1ccc(CCCCc2nnc(NC(=O)Cc3ccccc3F)s2)nn1", "note": "[Compound 673]", "IC50": 33}, {"smiles": "O=C(Cc1cccc(OC(F)(F)F)c1)Nc1ccc(CCCCc2nnc(NC(=O)Cc3ccc(Cl)nc3)s2)nn1", "note": "[Compound 683]", "IC50": 24}, {"smiles": "COc1ccc(OC(F)(F)F)cc1CC(=O)Nc1ccc(CCCCc2nnc(NC(=O)Cc3ccccn3)s2)nn1", "note": "[Compound 717]", "IC50": 190}, {"smiles": "O=C(Cc1cccc(OC(F)(F)F)c1)Nc1ccc(CCCCc2nnc(NC(=O)Cn3cc(Cl)cn3)s2)nn1", "note": "[Compound 700]", "IC50": 170}, {"smiles": "O=C(Cc1cccc(OC(F)(F)F)c1)Nc1ccc(CCCCc2nnc(NC(=O)Cc3c[nH]cn3)s2)nn1", "note": "[Compound 697]", "IC50": 50}, {"smiles": "O=C(Cc1ccccc1)Nc1nnc(CCSCCc2nnc(NC(=O)Cc3ccccc3)s2)s1", "note": "[Compound 1]", "IC50": 470}, {"smiles": "O=C(Cc1cccc(OC(F)(F)F)c1)Nc1ccc(CCCCc2nnc(NC(=O)CN3C(=O)CCC3=O)s2)nn1", "note": "[Compound 708]", "IC50": 2800}, {"smiles": "COc1cc(CC(=O)Nc2ccc(CCCCc3nnc(NC(=O)Cc4ccccn4)s3)nn2)cc(OC(F)(F)F)c1", "note": "[Compound 729]", "IC50": 26}, {"smiles": "O=C(Cc1cccc(OC(F)(F)F)c1)Nc1ccc(CCCCc2nnc(NC(=O)C(OC(=O)C(O)c3ccccc3)c3ccccc3)s2)nn1", "note": "(stereo not shown) [Compound 690]", "IC50": 17}, {"smiles": "COc1ccc(CC(=O)Nc2ccc(CCCCc3nnc(NC(=O)Cc4ccccn4)s3)nn2)cc1OC(F)(F)F", "note": "[Compound 722]", "IC50": 16}, {"smiles": "O=C(Cc1cccc(OC(F)(F)F)c1)Nc1ccc(CCCCc2nnc(NC(=O)Cn3cccn3)s2)nn1", "note": "[Compound 693]", "IC50": 70}, {"smiles": "O=C(Cc1cccc(OC(F)F)c1)Nc1ccc(CCCCc2nnc(NC(=O)Cc3ccccc3)s2)nn1", "note": "[Compound 666]", "IC50": 58}, {"smiles": "CCOC(=O)NCc1cccc(CC(=O)Nc2nnc(CCCCc3ccc(NC(=O)Cc4cccc(OC(F)(F)F)c4)nn3)s2)c1", "note": "[Compound 600]", "IC50": 8}, {"smiles": "O=C(Cc1cccc(OC(F)(F)F)c1)Nc1ccc(CCCCc2nnc(NC(=O)Cc3cccc(F)c3F)s2)nn1", "note": "[Compound 663]", "IC50": 89}, {"smiles": "O=C(Cc1cc(O)cc(OC(F)(F)F)c1)Nc1ccc(CCCCc2nnc(NC(=O)Cc3ccccn3)s2)nn1", "note": "[Compound 730]", "IC50": 25}, {"smiles": "O=C(Cc1cccc(OC(F)(F)F)c1)Nc1ccc(CCCCc2nnc(NC(=O)Cc3ccon3)s2)nn1", "note": "[Compound 677]", "IC50": 56}, {"smiles": "CC(C)c1cn(CC(=O)Nc2nnc(CCCCc3ccc(NC(=O)Cc4cccc(OC(F)(F)F)c4)nn3)s2)nn1", "note": "[Compound 699]", "IC50": 120}, {"smiles": "O=C(Cc1cccc(OC(F)(F)F)c1)Nc1ccc(CCCCc2nnc(NC(=O)Cc3cccc[n+]3[O-])s2)nn1", "note": "[Compound 716]", "IC50": 180}, {"smiles": "Cc1cccc(CC(=O)Nc2nnc(CCCCc3ccc(NC(=O)Cc4cccc(OC(F)(F)F)c4)nn3)s2)n1", "note": "[Compound 728]", "IC50": 18}, {"smiles": "Cc1n[nH]c(C)c1CC(=O)Nc1nnc(CCCCc2ccc(NC(=O)Cc3cccc(OC(F)(F)F)c3)nn2)s1", "note": "[Compound 695]", "IC50": 30}, {"smiles": "O=C(Cc1cccc(OC(F)(F)F)c1)Nc1ccc(CCCCc2nnc(NC(=O)Cc3cncnc3)s2)nn1", "note": "[Compound 675]", "IC50": 40}, {"smiles": "Cc1c(CC(=O)Nc2nnc(CCCCc3ccc(NC(=O)Cc4cccc(OC(F)(F)F)c4)nn3)s2)cnn1C", "note": "[Compound 686]", "IC50": 10}, {"smiles": "O=C(Cc1cccc(OC(F)(F)F)c1)Nc1ccc(CCCCc2nnc(NC(=O)Cc3cscn3)s2)nn1", "note": "[Compound 678]", "IC50": 26}, {"smiles": "O=C(Cc1ccccc1OC(F)(F)F)Nc1ccc(CCCCc2nnc(NC(=O)Cc3ccccc3)s2)nn1", "note": "[Compound 614]", "IC50": 82}, {"smiles": "Cc1cc(C)n(CC(=O)Nc2nnc(CCCCc3ccc(NC(=O)Cc4cccc(OC(F)(F)F)c4)nn3)s2)n1", "note": "[Compound 701]", "IC50": 110}, {"smiles": "COc1cccc(CC(=O)Nc2nnc(CCCCc3ccc(NC(=O)Cc4cccc(OC(F)(F)F)c4)nn3)s2)c1", "note": "[Compound 658]", "IC50": 40}, {"smiles": "CSc1cccc(CC(=O)Nc2nnc(CCCCc3ccc(NC(=O)Cc4cccc(OC(F)(F)F)c4)nn3)s2)c1", "note": "[Compound 674]", "IC50": 24}, {"smiles": "O=C(Cc1cccc(OC(F)(F)F)c1)Nc1ccc(CCCCc2nnc(NC(=O)Cc3cccnc3)s2)nn1", "note": "[Compound 671]", "IC50": 35}, {"smiles": "O=C(Cc1ccc(O)c(OC(F)(F)F)c1)Nc1ccc(CCCCc2nnc(NC(=O)Cc3ccccn3)s2)nn1", "note": "[Compound 723]", "IC50": 20}, {"smiles": "CS(=O)(=O)c1cccc(CC(=O)Nc2nnc(CCCCc3ccc(NC(=O)Cc4cccc(OC(F)(F)F)c4)nn3)s2)c1", "note": "[Compound 681]", "IC50": 19}, {"smiles": "CCCC(=O)OCN(C(=O)Cc1ccccc1)c1nnc(CCCCc2ccc(NC(=O)Cc3cccc(OC(F)(F)F)c3)nn2)s1", "note": "[Compound 629]", "IC50": 65}, {"smiles": "Cc1ccn(CC(=O)Nc2nnc(CCCCc3ccc(NC(=O)Cc4cccc(OC(F)(F)F)c4)nn3)s2)n1", "note": "[Compound 698]", "IC50": 98}, {"smiles": "O=C(Cc1cccc(OC(F)(F)F)c1)Nc1ccc(CCCCc2nnc(NC(=O)Cc3cccc(OC(F)F)c3)s2)nn1", "note": "[Compound 668]", "IC50": 26}, {"smiles": "COCCC(C(=O)Nc1nnc(CCCCc2ccc(NC(=O)Cc3cccc(OC(F)(F)F)c3)nn2)s1)c1cccnc1", "note": "(stereo not shown) [Compound 684]", "IC50": 42}, {"smiles": "O=C(Cc1cccc(OC(F)(F)F)c1)Nc1ccc(CCCCc2nnc(NC(=O)CN3CCCCC3=O)s2)nn1", "note": "[Compound 707]", "IC50": 85}, {"smiles": "Nc1nnc(CCCCc2ccc(NC(=O)Cc3cccc(OC(F)(F)F)c3)nn2)s1", "note": "[Compound 657]", "IC50": 1500}, {"smiles": "CC(C(=O)Nc1nnc(CCCCc2ccc(NC(=O)Cc3cccc(OC(F)(F)F)c3)nn2)s1)c1ccccc1", "note": "(stereo not shown) [Compound 636]", "IC50": 59}, {"smiles": "Cc1nc(CC(=O)Nc2nnc(CCCCc3ccc(NC(=O)Cc4cccc(OC(F)(F)F)c4)nn3)s2)c(C)s1", "note": "[Compound 688]", "IC50": 12}, {"smiles": "Cc1nn(C(=O)OC(C)(C)C)c(C)c1CC(=O)Nc1nnc(CCCCc2ccc(NC(=O)Cc3cccc(OC(F)(F)F)c3)nn2)s1", "note": "[Compound 694]", "IC50": 29}, {"smiles": "Cn1cc(CC(=O)Nc2nnc(CCCCc3ccc(NC(=O)Cc4cccc(OC(F)(F)F)c4)nn3)s2)cn1", "note": "[Compound 685]", "IC50": 22}, {"smiles": "O=C(Cc1cccc(OC(F)(F)F)c1)Nc1ccc(CCCCc2nnc(NC(=O)Cc3ccncc3)s2)nn1", "note": "[Compound 672]", "IC50": 45}, {"smiles": "O=C(Cc1cccc(OC(F)(F)F)c1)Nc1ccc(CCCCc2nnc(NC(=O)Cc3cc(F)cc(F)c3)s2)nn1", "note": "[Compound 662]", "IC50": 55}, {"smiles": "O=C(Cc1ccc(OC(F)(F)F)cc1)Nc1ccc(CCCCc2nnc(NC(=O)Cc3ccccc3)s2)nn1", "note": "[Compound 615]", "IC50": 120}, {"smiles": "[2H]C([2H])(CCc1nnc(N)s1)C([2H])([2H])c1ccc(NC(=O)Cc2cccc(OC(F)(F)F)c2)nn1", "note": "[Compound 726]", "IC50": 610}, {"smiles": "O=C(Cc1cc(OC(F)(F)F)ccc1O)Nc1ccc(CCCCc2nnc(NC(=O)Cc3ccccn3)s2)nn1", "note": "[Compound 718]", "IC50": 15}, {"smiles": "O=C(Cc1cccc(OC(F)(F)F)c1)Nc1ccc(CCCCc2nnc(NC(=O)Cc3cnccn3)s2)nn1", "note": "[Compound 676]", "IC50": 30}, {"smiles": "O=C(Cc1cccc(OC(F)(F)F)c1)Nc1ccc(CCCCc2nnc(NC(=O)CN3C[C@@H](O)CC3=O)s2)nn1", "note": "[Compound 704]", "IC50": 880}, {"smiles": "O=C(Cc1ccccn1)Nc1nnc(CCCCc2ccc(NC(=O)C(O)c3ccccc3)nn2)s1", "note": "(stereo not shown) [Compound 715]", "IC50": 390}, {"smiles": "O=C(Cc1ccc(F)c(OC(F)(F)F)c1)Nc1ccc(CCCCc2nnc(NC(=O)Cc3ccccn3)s2)nn1", "note": "[Compound 719]", "IC50": 10}]}, {"test_system": "P493-6 (myc \"on\") cells", "test": "Cell proliferation assay", "format": "cell-based", "conditions": "read-out: Cell prolif P493 72 h IC50; 72 h", "procedure": "as §1", "units": {"IC50": "nM"}, "values": [{"smiles": "[2H]C([2H])(CCc1nnc(NC(=O)Cc2ccccn2)s1)C([2H])([2H])c1ccc(NC(=O)Cc2cccc(OC(F)(F)F)c2)nn1", "note": "[Compound 727]", "IC50": 12}]}]}
